In brackets after ≈: the same amount, converted by molar mass.
Legend:
[1] = system: Human immunodeficiency virus 1; assay: Antiviral activity against HIV1 JRFL infected in human HeLa cells expressing CD4 and CCR5 after 3 days by luciferase reporter gene assay; type: functional, organism-based; conditions: Human immunodeficiency virus 1, JRFL, 72 h
[2] = Solubility of the compound in amorphous form at pH 6.5; type: physicochemical; conditions: buffer
[3] = Cytotoxicity against human HeLa cells expressing CD4 and CCR5 assessed as cell viability after 6 days by XTT assay; type: cell-based
[4] = AUC in rat at 5 mg/kg, po; type: ADME, organism-based; design: dose 5 mg/kg, route oral; conditions: plasma
[5] = Clearance in rat at 1 mg/kg, iv; type: ADME, organism-based; design: dose 1 mg/kg, route intravenous; conditions: in vivo
[6] = Oral bioavailability in rat at 5 mg/kg; type: ADME, organism-based; conditions: in vivo
[7] = Therapeutic index, ratio of CC50 for human HeLa cells expressing CD4 and CCR5 to EC50 for HIV1 JRFL infected in human HeLa cells expressing CD4 and CCR5; type: cell-based; conditions: read-out: Ratio CC50/EC50

Compound | EC50 [1] | CC50 at 144 h [3] | further results
CNCCCCNC(=O)c1ccn(-c2ncnc3c(C(=O)C(=O)N4CCN(C(=O)c5ccccc5)CC4)c[nH]c23)n1 | 4.8 nM |  | solubility [2]: 1730 µg/mL (≈ 3100 µM)
Cc1cnn(-c2ncnc3c(C(=O)C(=O)N4CCN(C(=O)c5ccccc5)CC4)c[nH]c23)c1 | 1.1 nM | > 300000 nM | 
O=C(C(=O)N1CCN(C(=O)c2ccccc2)CC1)c1c[nH]c2c(-c3ccnnc3)ncnc12 | 5.2 nM | > 300000 nM | 
N#Cc1ncnc2c(C(=O)C(=O)N3CCN(C(=O)c4ccccc4)CC3)c[nH]c12 | 44 nM | > 300000 nM | 
Cc1cc(-c2ncnc3c(C(=O)C(=O)N4CCN(C(=O)c5ccccc5)CC4)c[nH]c23)on1 | 0.88 nM | 177000 nM | 
COc1ccc(-c2ccn(-c3ncnc4c(C(=O)C(=O)N5CCN(C(=O)c6ccccc6)CC5)c[nH]c34)n2)cc1 | 0.24 nM |  | solubility [2]: 1 µg/mL (≈ 1.87 µM)
CN(C)C(=O)c1ccn(-c2ncnc3c(C(=O)C(=O)N4CCN(C(=O)c5ccccc5)CC4)c[nH]c23)n1 | 2 nM |  | 
O=C(O)c1ccn(-c2ncnc3c(C(=O)C(=O)N4CCN(C(=O)c5ccccc5)CC4)c[nH]c23)n1 | 0.76 nM |  | solubility [2]: 1070 µg/mL (≈ 2260 µM)
Cc1ncn(-c2ncnc3c(C(=O)C(=O)N4CCN(C(=O)c5ccccc5)CC4)c[nH]c23)n1 | 0.36 nM | > 150000 nM | AUC [4]: 4.9 µM·h; clearance [5]: 7.6 mL/min/kg; bioavailability [6]: 19%
COc1ccccc1-c1ccn(-c2ncnc3c(C(=O)C(=O)N4CCN(C(=O)c5ccccc5)CC4)c[nH]c23)n1 | 0.36 nM |  | solubility [2]: 4 µg/mL (≈ 7.47 µM)
O=C(C(=O)N1CCN(C(=O)c2ccccc2)CC1)c1c[nH]c2c(-n3nccn3)ncnc12 | 11 nM | > 150000 nM | 
O=C(C(=O)N1CCN(C(=O)c2ccccc2)CC1)c1c[nH]c2c(-c3cc[nH]n3)ncnc12 | 0.31 nM | > 300000 nM | 
O=C(C(=O)N1CCN(C(=O)c2ccccc2)CC1)c1c[nH]c2c(-c3cnccn3)ncnc12 | 0.25 nM | 78000 nM | selectivity ratio [7]: > 15000
CN1CCN(c2ncnc3c(C(=O)C(=O)N4CCN(C(=O)c5ccccc5)CC4)c[nH]c23)CC1 | > 5000 nM | > 300000 nM | 
COc1ncnc2c(C(=O)C(=O)N3CCN(C(=O)c4ccccc4)CC3)c[nH]c12 | 4.1 nM | > 300000 nM | 
O=C(C(=O)N1CCN(C(=O)c2ccccc2)CC1)c1c[nH]c2c(-n3ccc(-c4cccc(C(F)(F)F)c4)n3)ncnc12 | 0.37 nM |  | solubility [2]: 60 µg/mL (≈ 105 µM)
O=C(C(=O)N1CCN(C(=O)c2ccccc2)CC1)c1c[nH]c2c(-n3cncn3)ncnc12 | 0.1 nM | > 300000 nM | AUC [4]: 0.83 µM·h; clearance [5]: 35 mL/min/kg; bioavailability [6]: 15%
O=C(C(=O)N1CCN(C(=O)c2ccccc2)CC1)c1c[nH]c2c(Cl)ncnc12 | 11 nM | > 300000 nM | 
O=C(C(=O)N1CCN(C(=O)c2ccccc2)CC1)c1c[nH]c2c(-n3ccc(-c4ccc(F)cc4)n3)ncnc12 | < 0.16 nM |  | 
O=C(C(=O)N1CCN(C(=O)c2ccccc2)CC1)c1c[nH]c2c(-c3ccccn3)ncnc12 | 0.34 nM | 6000 nM | selectivity ratio [7]: > 15000
O=C(C(=O)N1CCN(C(=O)c2ccccc2)CC1)c1c[nH]c2c(-n3ccc(-c4ccccc4)n3)ncnc12 | 0.28 nM |  | solubility [2]: 1 µg/mL (≈ 1.98 µM)
O=C(C(=O)N1CCN(C(=O)c2ccccc2)CC1)c1c[nH]c2c(-c3ccncc3)ncnc12 | 12 nM | > 300000 nM | 
O=C(C(=O)N1CCN(C(=O)c2ccccc2)CC1)c1c[nH]c2c(-c3cccnc3)ncnc12 | 1.3 nM | > 300000 nM | 
CCOc1ncnc2c(C(=O)C(=O)N3CCN(C(=O)c4ccccc4)CC3)c[nH]c12 | 12 nM | > 150000 nM | 
O=C(C(=O)N1CCN(C(=O)c2ccccc2)CC1)c1c[nH]c2c(-n3ccc(-c4ccccn4)n3)ncnc12 | 0.15 nM |  | solubility [2]: 8 µg/mL (≈ 15.8 µM)
Cc1ccn(-c2ncnc3c(C(=O)C(=O)N4CCN(C(=O)c5ccccc5)CC4)c[nH]c23)n1 | 0.15 nM | > 300000 nM | AUC [4]: 17.8 µM·h; clearance [5]: 4.8 mL/min/kg; solubility [2]: 8 µg/mL (≈ 18 µM); bioavailability [6]: 45%
O=C(C(=O)N1CCN(C(=O)c2ccccc2)CC1)c1c[nH]c2c(-c3cncnc3)ncnc12 | 2.7 nM | > 300000 nM | 
CC(=O)c1ncnc2c(C(=O)C(=O)N3CCN(C(=O)c4ccccc4)CC3)c[nH]c12 | 18 nM | > 300000 nM | 

Reference: ChEMBL document CHEMBL2311313, “Inhibitors of HIV-1 attachment. Part 11: the discovery and structure-activity relationships associated with 4,6-diazaindole cores” (Bioorg Med Chem Lett, 2013)
